Reference: patent US8969386B2, “Modulators of CFTR” (Vertex Pharmaceuticals Incorporated, priority 2007, dated 2015)
pEC50: −log10 of the molar value.

Molecular target: T1, ΔF508-CFTR (Homo sapiens, UniProt P13569, DEL508-508)
T1 construct: expressed in transfected cells
Test: ΔF508-CFTR correction, membrane potential optical (FRET/VIPR) assay
Assay type: cell-based
Details: NIH3T3 mouse fibroblasts stably expressing ΔF508-CFTR; for Emax: read-out: % Efficacy
Excerpt: Assays for Detecting and Measuring ΔF508-CFTR Correction Properties of Compounds
Membrane potential optical methods for assaying ΔF508-CFTR modulation properties of compounds
The optical membrane potential assay utilized voltage-sensitive FRET sensors described by Gonzalez and Tsien (See Gonzalez, J. E. and R. Y. Tsien (1995) “Voltage sensing by fluorescence resonance energy transfer in single cells” Biophys J 69(4): 1272-80, and Gonzalez, J. E. and R. Y. Tsien (1997) “Improved indicators of cell membrane potential that use fluorescence resonance energy transfer” Chem Biol 4(4): 269-77) in combination with instrumentation for measuring fluorescence changes such as the Voltage/Ion Probe Reader (VIPR) (See Gonzalez, J. E., K. Oades, et al. (1999) “Cell-based assays and instrumentation for screening ion-channel targets” Drug Discov Today 4(9): 431-439).
These voltage sensitive assays are based on the change in fluorescence resonant energy transfer (FRET) between the membrane-soluble, voltage-sensitive dye, DiSBAC2(3), and a fluorescent phospholipid, CC2-DMPE, which is attached to the outer leaflet of the plasma membrane and acts as a FRET donor. Changes in membrane potential (Vm) cause the negatively charged DiSBAC2(3) to redistribute across the plasma membrane and the amount of energy transfer from CC2-DMPE changes accordingly. The changes in fluorescence emission were monitored using VIPR™ II, which is an integrated liquid handler and fluorescent detector designed to conduct cell-based screens in 96- or 384-well microtiter plates.
1. Identification of Correction Compounds
To identify small molecules that correct the trafficking defect associated with ΔF508-CFTR; a single-addition HTS assay format was developed. The cells were incubated in serum-free medium for 16 hrs at 37° C. in the presence or absence (negative control) of test compound. As a positive control, cells plated in 384-well plates were incubated for 16 hrs at 27° C. to “temperature-correct” ΔF508-CFTR. The cells were subsequently rinsed 3× with Krebs Ringers solution and loaded with the voltage-sensitive dyes. To activate ΔF508-CFTR, 10 μM forskolin and the CFTR potentiator, genistein (20 μM), were added along with Cl^−-free medium to each well. The addition of Cl^−-free medium promoted Cl^− efflux in response to ΔF508-CFTR activation and the resulting membrane depolarization was optically monitored using the FRET-based voltage-sensor dyes.
NIH3T3 mouse fibroblasts stably expressing ΔF508-CFTR are used for optical measurements of membrane potential. The cells are maintained at 37° C. in 5% CO2 and 90% humidity in Dulbecco's modified Eagle's medium supplemented with 2 mM glutamine, 10% fetal bovine serum, 1×NEAA, β-ME, 1× pen/strep, and 25 mM HEPES in 175 cm^2 culture flasks. For all optical assays, the cells were seeded at 30,000/well in 384-well matrigel-coated plates and cultured for 2 hrs at 37° C. before culturing at 27° C. for 24 hrs for the potentiator assay. For the correction assays, the cells are cultured at 27° C. or 37° C. with and without compounds for 16-24 hours Electrophysiological Assays for assaying ΔF508-CFTR modulation properties of compounds

T1 sequence (P13569 with tags, fused parts or gaps DEL508-508): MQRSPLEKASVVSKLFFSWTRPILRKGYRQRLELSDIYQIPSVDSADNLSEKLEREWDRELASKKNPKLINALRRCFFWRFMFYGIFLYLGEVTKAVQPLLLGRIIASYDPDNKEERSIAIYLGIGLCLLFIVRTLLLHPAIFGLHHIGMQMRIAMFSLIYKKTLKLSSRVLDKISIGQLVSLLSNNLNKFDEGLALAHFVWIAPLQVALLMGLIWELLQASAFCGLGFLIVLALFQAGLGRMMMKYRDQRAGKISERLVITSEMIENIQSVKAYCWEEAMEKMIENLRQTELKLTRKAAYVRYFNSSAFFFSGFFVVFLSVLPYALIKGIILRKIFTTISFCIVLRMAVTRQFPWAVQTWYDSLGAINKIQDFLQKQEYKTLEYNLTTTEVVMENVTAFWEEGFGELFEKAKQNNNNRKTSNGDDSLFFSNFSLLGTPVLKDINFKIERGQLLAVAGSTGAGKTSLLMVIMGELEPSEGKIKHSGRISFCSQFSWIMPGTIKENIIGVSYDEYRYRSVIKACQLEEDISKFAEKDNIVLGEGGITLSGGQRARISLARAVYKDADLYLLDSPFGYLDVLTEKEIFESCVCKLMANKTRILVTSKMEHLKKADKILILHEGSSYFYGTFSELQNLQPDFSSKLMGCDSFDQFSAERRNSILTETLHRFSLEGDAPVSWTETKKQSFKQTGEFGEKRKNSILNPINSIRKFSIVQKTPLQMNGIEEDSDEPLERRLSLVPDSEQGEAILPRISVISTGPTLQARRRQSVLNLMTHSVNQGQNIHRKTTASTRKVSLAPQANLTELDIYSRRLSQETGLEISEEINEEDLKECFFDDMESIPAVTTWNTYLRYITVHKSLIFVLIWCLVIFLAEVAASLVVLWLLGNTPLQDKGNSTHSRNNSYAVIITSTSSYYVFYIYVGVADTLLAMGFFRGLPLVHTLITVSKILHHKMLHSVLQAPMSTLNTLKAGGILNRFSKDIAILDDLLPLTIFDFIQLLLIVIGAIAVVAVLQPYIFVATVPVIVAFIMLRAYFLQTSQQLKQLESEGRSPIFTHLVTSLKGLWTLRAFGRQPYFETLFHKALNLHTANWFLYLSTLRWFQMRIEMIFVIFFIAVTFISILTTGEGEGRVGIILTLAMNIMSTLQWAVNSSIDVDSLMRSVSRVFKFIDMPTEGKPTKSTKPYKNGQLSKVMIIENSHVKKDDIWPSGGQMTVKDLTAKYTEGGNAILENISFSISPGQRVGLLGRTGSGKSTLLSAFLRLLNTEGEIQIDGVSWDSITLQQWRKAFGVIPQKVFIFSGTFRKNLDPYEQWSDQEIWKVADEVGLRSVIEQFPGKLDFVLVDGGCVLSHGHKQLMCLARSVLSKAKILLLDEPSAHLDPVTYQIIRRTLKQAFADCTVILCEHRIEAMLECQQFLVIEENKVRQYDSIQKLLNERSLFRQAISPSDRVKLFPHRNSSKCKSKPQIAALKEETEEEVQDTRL

pEC50 | Emax [%] | SMILES
> 5.70 | 50 to 100 | Cc1cc(NC(=O)C2(c3ccc4c(c3)CCO4)CC2)nc(-c2ccc(=O)[nH]c2)c1 [Compound 68]
> 5.70 | > 100 | Cc1cc(NC(=O)C2(c3ccc4c(c3)OC(F)(F)O4)CC2)nc(-c2ccc[nH]c2=O)c1 [Compound 17]
> 5.70 | 50 to 100 | Cc1cc(NC(=O)C2(c3ccc4c(c3)OCC4)CC2)nc(-c2ccc(=O)[nH]c2)c1 [Compound 98]
> 5.70 | > 100 | Cc1cc(NC(=O)C2(c3ccc4c(c3)OC(F)(F)O4)CC2)nc(-c2c[nH]c(=O)c(C)c2)c1C [Compound 111]
> 5.70 | 50 to 100 | COC(=O)Cn1ccc(-c2nc(NC(=O)C3(c4ccc5c(c4)OC(F)(F)O5)CC3)ccc2C)cc1=O [Compound 16]
5.30 to 5.70 | 50 to 100 | Cc1ccc(NC(=O)C2(c3ccc4c(c3)COC4)CC2)nc1-c1c[nH]c(=O)c(C)c1 [Compound 59]
> 5.70 | 50 to 100 | Cc1cc(NC(=O)C2(c3ccc4c(c3)OC(F)(F)O4)CC2)nc(-c2ccc(=O)[nH]c2)c1C [Compound 65]
> 5.70 | > 100 | COc1ncccc1-c1nc(NC(=O)C2(c3ccc4c(c3)OC(F)(F)O4)CC2)cc(C)c1C [Compound 56]
> 5.70 | 50 to 100 | COc1ccc(C2(C(=O)Nc3ccc(C)c(-c4ccc[nH]c4=O)n3)CC2)cc1 [Compound 10]
> 5.70 | 50 to 100 | COc1cc(-c2nc(NC(=O)C3(c4ccc5c(c4)CCO5)CC3)cc(C)c2C)ccn1 [Compound 102]
> 5.70 | 50 to 100 | Cc1cc(NC(=O)C2(c3ccc4c(c3)CCO4)CC2)nc(-c2cc[nH]c(=O)c2)c1C [Compound 109]
> 5.70 | > 100 | Cc1ccc(NC(=O)C2(c3ccc4c(c3)OCC4)CC2)nc1-c1ccc(=O)[nH]c1 [Compound 99]
> 5.70 | > 100 | Cc1ccc(NC(=O)C2(c3ccc4c(c3)OC(F)(F)O4)CC2)nc1-c1c[nH]c(=O)c(C)c1 [Compound 6]
> 5.70 | > 100 | Cc1ccc(NC(=O)C2(c3ccc4c(c3)OC(F)(F)O4)CC2)nc1-c1cc[nH]c(=O)c1Cl [Compound 86]
> 5.70 | > 100 | COc1cc(-c2nc(NC(=O)C3(c4ccc5c(c4)OC(F)(F)O5)CC3)ccc2C)cnc1OC [Compound 72]
> 5.70 | 50 to 100 | COc1ncc(-c2nc(NC(=O)C3(c4ccc5c(c4)OC(F)(F)O5)CC3)ccc2C)cc1C(=O)N(C)C [Compound 73]
> 5.70 | > 100 | Cc1ccc(NC(=O)C2(c3ccc4c(c3)OC(F)(F)O4)CC2)nc1-c1c[nH]c(=O)c(N)c1 [Compound 77]
> 5.70 | > 100 | COc1ncc(-c2nc(NC(=O)C3(c4ccc5c(c4)OC(F)(F)O5)CC3)ccc2C)cc1Cl [Compound 71]
> 5.70 | 50 to 100 | Cc1ccc(NC(=O)C2(c3ccc4c(c3)CCC4)CC2)nc1-c1ccc(=O)[nH]c1 [Compound 115]
> 5.70 | > 100 | COc1ncc(C)cc1-c1nc(NC(=O)C2(c3ccc4c(c3)OC(F)(F)O4)CC2)cc(C)c1C [Compound 88]
> 5.70 | > 100 | Cc1ccc(NC(=O)C2(c3ccc4c(c3)OC(F)(F)O4)CC2)nc1-c1cc(Cl)c[nH]c1=O [Compound 85]
< 5.30 | 50 to 100 | Cc1ccc(NC(=O)C2(c3ccc4c(c3)OC(F)(F)O4)CC2)nc1-c1ccc(=O)n(CC(=O)O)c1 [Compound 13]
> 5.70 | 50 to 100 | Cc1ccc(NC(=O)C2(c3ccc4c(c3)OCO4)CC2)nc1-c1ccc(=O)[nH]c1 [Compound 49]

pEC50 | Emax [%] | SMILES
> 5.70 | 50 to 100 | Cc1ccc(NC(=O)C2(c3ccc4c(c3)OC(F)(F)O4)CC2)nc1-c1ccc[nH]c1=O [Compound 46]
> 5.70 | > 100 | COc1cc(-c2cc(C)cc(NC(=O)C3(c4ccc5c(c4)OC(F)(F)O5)CC3)n2)ccn1 [Compound 3]
> 5.70 | > 100 | Cc1cc(-c2nc(NC(=O)C3(c4ccc5c(c4)OC(F)(F)O5)CC3)ccc2C)c(=O)n(CCO)c1 [Compound 116]
> 5.70 | > 100 | COc1ncccc1-c1nc(NC(=O)C2(c3ccc4c(c3)OC(F)(F)O4)CC2)ccc1C [Compound 15]
> 5.70 | 50 to 100 | COC(=O)Cn1cc(-c2nc(NC(=O)C3(c4ccc5c(c4)OC(F)(F)O5)CC3)ccc2C)cc(C#N)c1=O [Compound 110]
> 5.70 | > 100 | Cc1ccc(NC(=O)C2(c3ccc4c(c3)OC(F)(F)O4)CC2)nc1-c1ccc(=O)n(CCO)c1 [Compound 20]
> 5.70 | 50 to 100 | Cc1ccc(NC(=O)C2(c3ccc4c(c3)CCO4)CC2)nc1-c1cc[nH]c(=O)c1 [Compound 80]
> 5.70 | 50 to 100 | COc1cc(-c2nc(NC(=O)C3(c4ccc5c(c4)OC(F)(F)O5)CC3)ccc2C)c[nH]c1=O [Compound 21]
> 5.70 | > 100 | COc1ccc(-c2nc(NC(=O)C3(c4ccc5c(c4)CCO5)CC3)cc(C)c2C)cn1 [Compound 101]
> 5.70 | 50 to 100 | Cc1c[nH]c(=O)c(-c2nc(NC(=O)C3(c4ccc5c(c4)CCO5)CC3)ccc2C)c1 [Compound 83]
> 5.70 | 50 to 100 | COc1ncc(-c2nc(NC(=O)C3(c4ccc5c(c4)OC(F)(F)O5)CC3)cc(C)c2C)cc1C [Compound 104]
> 5.70 | > 100 | COc1ncc(C)cc1-c1cc(C)cc(NC(=O)C2(c3ccc4c(c3)OC(F)(F)O4)CC2)n1 [Compound 87]
> 5.70 | > 100 | Cc1ccc(NC(=O)C2(c3ccc4c(c3)OC(F)(F)O4)CC2)nc1-c1c[nH]c(=O)c(Cl)c1 [Compound 25]
> 5.70 | > 100 | Cc1cc(NC(=O)C2(c3ccc4c(c3)OC(F)(F)O4)CC2)nc(-c2c[nH]c(=O)cc2C)c1 [Compound 113]
> 5.70 | > 100 | Cc1ccc(NC(=O)C2(c3ccc4c(c3)OC(F)(F)O4)CC2)nc1-c1ccc(=O)n(CCS(C)(=O)=O)c1 [Compound 95]
> 5.70 | > 100 | Cc1ccc(NC(=O)C2(c3ccc4c(c3)OC(F)(F)O4)CC2)nc1-c1ccc(=O)n(C[C@@H](O)CO)c1 [Compound 79]
> 5.70 | 50 to 100 | Cc1ccc(NC(=O)C2(c3ccc4c(c3)OC(F)(F)O4)CC2)nc1-c1ccc(=O)[nH]c1 [Compound 12]
> 5.70 | 50 to 100 | Cc1ncc(NC(=O)C2(c3ccc4c(c3)OC(F)(F)O4)CC2)nc1-c1ccc(=O)[nH]c1 [Compound 55]
> 5.70 | > 100 | Cc1ccc(NC(=O)C2(c3ccc4c(c3)OC(F)(F)O4)CC2)nc1-c1ccn(CCO)c(=O)c1 [Compound 29]
> 5.70 | 50 to 100 | Cc1ncc(NC(=O)C2(c3ccc4c(c3)OC(F)(F)O4)CC2)nc1-c1ccc[nH]c1=O [Compound 54]
> 5.70 | > 100 | Cc1cc(NC(=O)C2(c3ccc4c(c3)OC(F)(F)O4)CC2)nc(-c2ccc(=O)[nH]c2C)c1 [Compound 117]
> 5.70 | 50 to 100 | Cc1ccc(NC(=O)C2(c3ccc4c(c3)OC(F)(F)O4)CC2)nc1-c1ccc(=O)n(CC#N)c1 [Compound 97]
